This note sets out measurements from ChEMBL document CHEMBL1201862, “PubChem BioAssay data set” (2004).

“And” between values parts separate entries of the source, which are not always exact repeats. Equal entries are not always repeated.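 Values below derive from 48-hour exposures of cells grown in 96-well plates, with endpoints linearly interpolated between the two concentrations bracketing the appropriate inhibition level. GI50: concentration for 50% inhibition of growth.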 The source made the active and inactive calls. No stated cut-off is given here; in the data, active = GI50 up to about 1.1 µM and inactive = higher.

Some test systems named below: K562; MDA-MB-435; Malme-3M; HT-29; COLO 205; HCT-116; BT-549; SF-268; SK-OV-3; 786-0; SK-MEL-28; T47D; DU-145; M14; HL-60; HOP-62; NCI-H460; SF-539; RPMI-8226.
What all share (experiment): NCI tumour cell line growth inhibition, 48 h

With `COc1ccc(C2Oc3c(OC)cc(CCCO)cc3C2CO)cc1OC` (stereo not drawn), the GI50 in the assay on K562 is 20.6 µM (inactive) and 38.5 µM (inactive); with MDA-MB-435, 70 µM (inactive) and 93.5 µM (inactive); with Malme-3M, > 100 µM (inactive) and 50.7 µM (inactive); in the assay on HT-29, > 100 µM (inactive); in the assay with COLO 205 it was > 100 µM (inactive); with HCT-116, > 100 µM (inactive). In addition, the GI50 in the assay on BT-549 is 96.2 µM (inactive) and 50.7 µM (inactive); in the assay with SF-268, > 100 µM (inactive); with SK-OV-3 it was > 100 µM (inactive); in the assay with 786-0, > 100 µM (inactive); in the assay on SK-MEL-28, 74 µM (inactive); in the assay on T47D, 10.9 µM (inactive) and 18.3 µM (inactive). The GI50 was > 100 µM (inactive) in the assay on DU-145; > 100 µM (inactive) with M14; 43.8 µM (inactive) and 65.3 µM (inactive) in the assay on HL-60; > 100 µM (inactive) with HOP-62; > 100 µM (inactive) with NCI-H460; > 100 µM (inactive) in the assay on SF-539.
`CN(CCN1C(=O)c2cccc3cccc(c23)C1=O)CCN1C(=O)c2cccc3cccc(c23)C1=O`: the GI50 with K562 is 73.1 µM (inactive); in the assay on MDA-MB-435 it was > 100 µM (inactive); with Malme-3M it was 6 µM (inactive); in the assay with HT-29, > 100 µM (inactive); in the assay on COLO 205 it was 2.55 µM (inactive); in the assay on HCT-116 it was 5.98 µM (inactive). Moreover, the GI50 in the assay on BT-549 is 53.1 µM (inactive); with SF-268, 27.7 µM (inactive); with SK-OV-3, 4.29 µM (inactive); with 786-0 it was 9.02 µM (inactive); in the assay on SK-MEL-28, > 100 µM (inactive); in the assay on T47D, 1.5 µM (inactive). Also, the GI50 in the assay on DU-145 was > 100 µM (inactive); in the assay with M14, > 100 µM (inactive); with HL-60 it was 68.7 µM (inactive); in the assay on HOP-62, 12.5 µM (inactive); with NCI-H460, 16.3 µM (inactive); in the assay on SF-539, 32.7 µM (inactive).
Take `COC(=O)C1=C(C(=O)OC)C(Cc2ccccc2)(OO)OC1=O` (stereo not drawn): the GI50 in the assay on K562 is 2.7 µM (inactive); in the assay with MDA-MB-435, 3.52 µM (inactive); in the assay with Malme-3M, 6.22 µM (inactive); in the assay with HT-29, 3.17 µM (inactive); in the assay with COLO 205 it was 7.19 µM (inactive); with HCT-116, 3.35 µM (inactive). The GI50 was 6.32 µM (inactive) in the assay with BT-549; 29 µM (inactive) in the assay with SK-OV-3; 2.95 µM (inactive) in the assay with 786-0; 7.76 µM (inactive) with SK-MEL-28; 9.98 µM (inactive) in the assay on T47D; 23 µM (inactive) with DU-145. Also, the GI50 in the assay with M14 is 3.8 µM (inactive); in the assay on HL-60 it was 0.964 µM (active); in the assay on NCI-H460, 36.2 µM (inactive); in the assay on SF-539, 3.15 µM (inactive).
In the case of `Cc1cc(C)c(N[S+]([O-])c2cccc([N+](=O)[O-])c2)c(C)c1` (stereo not drawn), the GI50 in the assay with K562, in the assay with MDA-MB-435, in the assay with Malme-3M, in the assay on HT-29, in the assay with COLO 205 and in the assay on BT-549 was > 100 µM (inactive) throughout. The GI50 in the assay with SF-268, with 786-0, in the assay on SK-MEL-28, in the assay with T47D, in the assay on DU-145 and in the assay on RPMI-8226 was > 100 µM (inactive) in each case. The GI50 with M14, in the assay on HL-60, in the assay on HOP-62, with NCI-H460 and in the assay with SF-539 was > 100 µM (inactive) throughout.
As for `CC1C2CC(CC2N)C1(C)C` (stereo not drawn), the GI50 with K562, in the assay on MDA-MB-435, with Malme-3M, in the assay on HT-29, in the assay with COLO 205 and in the assay with HCT-116 was > 100 µM (inactive) throughout. The GI50 in the assay on BT-549, in the assay on SF-268, in the assay with SK-OV-3, with 786-0, in the assay with SK-MEL-28 and in the assay on T47D was > 100 µM (inactive) throughout. Further, the GI50 in the assay on DU-145, with M14, with HL-60, in the assay with HOP-62, in the assay with NCI-H460 and in the assay with SF-539 was > 100 µM (inactive) each time.
For the molecule `O=C1Nc2cccc(Cl)c2/C1=C\c1cccnc1`, the GI50 in the assay with K562 was 5.85 µM (inactive); with MDA-MB-435, 5.53 µM (inactive); in the assay on Malme-3M it was 9.93 µM (inactive); in the assay on HT-29, 5.92 µM (inactive); in the assay on COLO 205, 3.32 µM (inactive); with HCT-116 it was 3.16 µM (inactive). The GI50 was 8.53 µM (inactive) in the assay on BT-549; 7.24 µM (inactive) in the assay on SF-268; 4.12 µM (inactive) with SK-OV-3; 7.43 µM (inactive) in the assay on 786-0; 16.4 µM (inactive) in the assay with SK-MEL-28; 3.65 µM (inactive) in the assay with T47D. The GI50 was 6.37 µM (inactive) with DU-145; 6.61 µM (inactive) in the assay with M14; 3.72 µM (inactive) in the assay with HL-60; 6.12 µM (inactive) in the assay on HOP-62; 8.22 µM (inactive) in the assay on NCI-H460; 12.4 µM (inactive) with SF-539.
With `O=c1c2cc(I)ccc2nc(-c2cccs2)n1-c1ccc(O)cc1`, the GI50 with K562 is 24.2 µM (inactive); with MDA-MB-435, 12 µM (inactive); in the assay with Malme-3M it was 5.4 µM (inactive); in the assay with HT-29, 13 µM (inactive); with COLO 205, 17.2 µM (inactive); with HCT-116 it was 14.3 µM (inactive). The GI50 is 14.5 µM (inactive) with BT-549; 14.1 µM (inactive) in the assay on SF-268; 16.3 µM (inactive) in the assay on 786-0; 16 µM (inactive) in the assay on SK-MEL-28; 1.56 µM (inactive) with T47D; 6.78 µM (inactive) in the assay on DU-145. Further, the GI50 in the assay with RPMI-8226 is 3.37 µM (inactive); in the assay with M14 it was 15.8 µM (inactive); in the assay on HL-60 it was 7.82 µM (inactive); with HOP-62 it was 17.5 µM (inactive); in the assay on NCI-H460, 14.9 µM (inactive); with SF-539, < 0.01 µM (active).
Take `O=C(N/N=C\c1cccc2ccccc12)Nc1cccc2ccccc12`: the GI50 is 3.17 µM (inactive) in the assay on K562; 3.95 µM (inactive) in the assay with MDA-MB-435; 35.2 µM (inactive) in the assay on Malme-3M; 4.17 µM (inactive) in the assay on HT-29; 16.9 µM (inactive) in the assay with COLO 205; 13.9 µM (inactive) in the assay with HCT-116. Moreover, the GI50 in the assay on BT-549 is 27.7 µM (inactive); in the assay with SF-268, 63.4 µM (inactive); with 786-0, 11.7 µM (inactive); in the assay with SK-MEL-28 it was 32.9 µM (inactive); in the assay on T47D, 65.9 µM (inactive); in the assay with DU-145 it was > 100 µM (inactive). The GI50 with M14 was 28.8 µM (inactive); in the assay with HL-60, 4.32 µM (inactive); in the assay on HOP-62, 7.11 µM (inactive); in the assay with NCI-H460, 5.43 µM (inactive); in the assay with SF-539 it was 10.7 µM (inactive).
As for `Cc1ccc2[nH]c3c(c2c1)C1CCC(C(C)(C)C)CC1C1C(=O)N(c2ccc(Oc4ccccc4)cc2)C(=O)C31` (stereo not drawn), the GI50 in the assay with K562 is 8.91 µM (inactive); in the assay on MDA-MB-435, 58.6 µM (inactive); in the assay on Malme-3M, 12.3 µM (inactive); with HT-29, > 79.6 µM (inactive); in the assay with COLO 205 it was 13.5 µM (inactive); with HCT-116 it was 18.5 µM (inactive). The GI50 in the assay on BT-549 is 20 µM (inactive); in the assay on SF-268, 6.75 µM (inactive); with SK-OV-3, 17.7 µM (inactive); in the assay with 786-0, 4.72 µM (inactive); in the assay with SK-MEL-28, > 58.7 µM (inactive); with T47D it was 16.2 µM (inactive). The GI50 is > 95.3 µM (inactive) in the assay on DU-145; 15.8 µM (inactive) in the assay with RPMI-8226; 48.8 µM (inactive) in the assay with M14; 2.57 µM (inactive) in the assay with HL-60; 22.4 µM (inactive) in the assay with HOP-62; 16 µM (inactive) in the assay on NCI-H460.
Consider `CCC/C(Cl)=N/OC(=O)Nc1cccc(F)c1`, for which the GI50 in the assay on K562 is 1.08 µM (active); in the assay with MDA-MB-435 it was 11.9 µM (inactive); in the assay on Malme-3M, 1.73 µM (inactive); with HT-29, 4.91 µM (inactive); in the assay with COLO 205 it was 2.19 µM (inactive); in the assay on HCT-116 it was 4.19 µM (inactive). In addition, the GI50 in the assay on BT-549 was 2.32 µM (inactive); with SF-268, 21.7 µM (inactive); in the assay with SK-OV-3 it was 17.3 µM (inactive); in the assay with 786-0, 1.69 µM (inactive); with SK-MEL-28 it was 5.12 µM (inactive); in the assay on T47D, 2.71 µM (inactive). The GI50 in the assay with DU-145 is 17.5 µM (inactive); in the assay with RPMI-8226, 1.96 µM (inactive); in the assay on M14 it was 3.94 µM (inactive); in the assay on HL-60 it was 1.28 µM (inactive); with HOP-62 it was 16.4 µM (inactive); with NCI-H460 it was 19 µM (inactive).
As to `C/C=C1/C[C@@H](C)[C@@](C)(O)C(=O)OCC2=CC[N+]3([O-])CC[C@@H](OC1=O)[C@@H]23` (stereo partly drawn) [SENECIONINE N-OXIDE], the GI50 was 0.0482 µM (active) with K562; > 100 µM (inactive) in the assay with MDA-MB-435; 94.6 µM (inactive) in the assay on Malme-3M; > 100 µM (inactive) in the assay on HT-29; > 100 µM (inactive) with COLO 205; > 100 µM (inactive) in the assay on HCT-116. The GI50 in the assay with BT-549, with SF-268, in the assay with SK-OV-3, with 786-0, in the assay with SK-MEL-28 and in the assay with T47D was > 100 µM (inactive) throughout. Besides, the GI50 with DU-145, in the assay with M14, in the assay on HL-60, in the assay with NCI-H460 and with SF-539 was > 100 µM (inactive) throughout.
